According to ChEMBL document CHEMBL1122107, “Structure-antitumor activity relationships of 9-anilinoacridines using pattern recognition” (1982):

These compounds were tested on L1210 (assay: Tumor cell selectivity determined as maximal percent increase in life span (ILSmax) at LD10 dosage level in L1210 cells).
Assay type: functional, Mus musculus

| SMILES | ILSmax [%] |
| --- | --- |
| CNc1ccc2c(Nc3ccc(NS(C)(=O)=O)cc3)c3cccc(C)c3nc2c1 | 170 |
| Nc1ccc2c(Nc3ccc([N+](=O)[O-])cc3)c3ccccc3nc2c1 | 25 |
| COc1cc(Nc2c3ccccc3nc3ccccc23)ccc1N | 25 |
| NCCc1ccc(Nc2c3ccccc3nc3ccccc23)cc1 | 25 |
| CCCCCS(=O)(=O)Nc1ccc(Nc2c3ccccc3nc3ncccc23)c(OC)c1 | 76 |
| COc1cc(NS(C)(=O)=O)ccc1N=c1c2ccccc2[nH]c2c(CN(C)C)cccc12 | 72 |
| CS(=O)(=O)c1ccc(S(=O)(=O)Nc2ccc(Nc3c4ccccc4nc4ccccc34)cc2)cc1 | 128 |
| CN(C)c1ccc(NC(=O)Nc2ccc(Nc3c4ccccc4nc4ccccc34)cc2)cc1 | 170 |
| Nc1ccc2c(Nc3ccc(NC(=O)c4ccccc4)cc3)c3ccccc3nc2c1 | 115 |
| CCCCCNS(=O)(=O)c1ccc(N=c2c3ccccc3[nH]c3cc(N)ccc23)cc1 | 50 |
| O=C(O)CCCCCCc1ccc(Nc2c3ccccc3nc3ccccc23)cc1 | 74 |
| CC(=O)NCCS(=O)(=O)Nc1ccc(Nc2c3ccc(I)cc3nc3ccc(N)cc23)cc1 | 105 |
| CS(=O)(=O)N1CCN(c2ccc(Nc3c4ccccc4nc4ccccc34)cc2)CC1 | 70 |
| CCCCCCC(=O)N(c1ccc(Nc2c3ccccc3nc3cc(NC(C)=O)ccc23)cc1)S(C)(=O)=O | 100 |
| O=C(O)c1ccc(Nc2c3ccccc3nc3ccccc23)cc1 | 90 |
| CS(=O)(=O)Nc1ccc(Nc2c3ccccc3nc3cc(Cl)c(N)cc23)cc1 | 140 |
| COc1ccc(Nc2c3ccccc3nc3ccccc23)cc1 | 25 |
| NC(=O)CCCCc1ccc(Nc2c3ccccc3nc3ccccc23)cc1 | 82 |
| COc1ccc2c(Nc3ccc(NS(C)(=O)=O)cc3)c3cccc(C)c3nc2c1 | 75 |
| COc1cc(NS(C)(=O)=O)ccc1Nc1c2ccccc2nc2c(OCCO)cccc12 | 105 |
| COc1cccc2c(Nc3ccc(NS(C)(=O)=O)cc3)c3ccc(N)cc3nc12 | 100 |
| Nc1cccc(Nc2c3ccccc3nc3ccccc23)c1 | 50 |
| NCCc1ccc(NC(=O)Nc2ccc(N=c3c4ccccc4[nH]c4ccccc34)cc2)cc1 | 170 |
| c1ccc2c(Nc3ccc(N4CCNCC4)cc3)c3ccccc3nc2c1 | 25 |
| O=C(O)CCc1ccc(NC(=O)Nc2ccc(N=c3c4ccccc4[nH]c4ccccc34)cc2)cc1 | 125 |

| SMILES | ILSmax [%] |
| --- | --- |
| Nc1ccc(C(=O)Nc2ccc(N=c3c4ccccc4[nH]c4ccc(N)cc34)cc2)cc1 | 76 |
| COc1cc(NS(C)(=O)=O)ccc1Nc1c2cccc(C)c2nc2c(C)c([N+](=O)[O-])ccc12 | 56 |
| CCCCS(=O)(=O)Nc1ccc(Nc2c3ccccc3nc3c(OC)cccc23)c(OC)c1 | 63 |
| CS(=O)(=O)Nc1ccc(Nc2c3ccccc3nc3cc(NC(=O)c4ccccc4)ccc23)cc1 | 25 |
| NCCCCCc1ccc(NC(=O)Nc2ccc(N=c3c4ccccc4[nH]c4ccccc34)cc2)cc1 | 170 |
| NC(=O)CCCCCc1ccc(Nc2c3ccccc3nc3ccccc23)cc1 | 97 |
| CS(=O)(=O)Nc1ccc(Nc2c3ccccc3nc3cc(N)ccc23)cc1 | 134 |
| CCCOc1cccc2c(Nc3ccc(NS(C)(=O)=O)cc3)c3ccccc3nc12 | 100 |
| O=S(=O)(CCl)Nc1ccc(Nc2c3ccccc3nc3ccccc23)cc1 | 55 |
| NCCCCCS(=O)(=O)Nc1ccc(Nc2c3ccccc3nc3ccccc23)cc1 | 25 |
| CC(=O)N(C)c1ccc(Nc2c3ccccc3nc3ccccc23)cc1 | 50 |
| CS(=O)(=O)Nc1ccc(Nc2c3ccccc3nc3ccccc23)c(N)c1 | 105 |
| CC(C(N)=O)S(=O)(=O)Nc1ccc(Nc2c3ccccc3nc3ccccc23)cc1 (stereo not given) | 25 |
| COc1cc(NS(C)(=O)=O)ccc1Nc1c2ccccc2nc2cc(C(C)C)ccc12 | 40 |
| CCCCCS(=O)(=O)Nc1ccc(Nc2c3ccccc3nc3c(C(N)=O)cccc23)c(OC)c1 | 93 |
| CN(c1ccc(N=c2c3ccccc3[nH]c3cc(N)ccc23)cc1)S(C)(=O)=O | 100 |
| CS(=O)(=O)Nc1ccc(Nc2c3cc(N)ccc3nc3ccc(N)cc23)cc1 | 35 |
| COC(=O)N(c1ccc(Nc2c3ccccc3nc3cc(NC(C)=O)ccc23)cc1)S(C)(=O)=O | 125 |
| N#CC(C#N)=Cc1ccc(Nc2c3ccccc3nc3ccccc23)cc1 | 65 |
| COc1ccc2c(Nc3ccc(NS(C)(=O)=O)cc3OC)c3ccc(Cl)cc3nc2c1 | 50 |
| CCc1ccc2c(Nc3ccc(CC(=O)O)cc3)c3ccccc3nc2c1 | 200 |
| O=C(O)CCCCCCCCCc1ccc(Nc2c3ccccc3nc3ccccc23)cc1 | 75 |
| Nc1ccc(Nc2c3ccccc3nc3cc([N+](=O)[O-])ccc23)cc1 | 30 |
| Cc1ccc2c(Nc3ccc(NS(C)(=O)=O)cc3)c3ccccc3nc2c1C | 55 |
| CS(=O)(=O)Nc1ccccc1Nc1c2ccccc2nc2ccccc12 | 25 |

| SMILES | ILSmax [%] |
| --- | --- |
| NCCCCCS(=O)(=O)Nc1ccc(Nc2c3ccccc3nc3cc([N+](=O)[O-])ccc23)cc1 | 80 |
| N=C(N)NCCCS(=O)(=O)Nc1ccc(Nc2c3ccc(N)cc3nc3ccc(N)cc23)cc1 | 129 |
| Nc1ccc2c(=Nc3ccc(S(N)(=O)=O)cc3)c3ccc(N)cc3[nH]c2c1 | 60 |
| COc1ccccc1Nc1c2ccccc2nc2ccccc12 | 25 |
| CCCCNC(=O)c1cccc2c(Nc3ccc(NS(=O)(=O)CCC)cc3OC)c3ccccc3nc12 | 71 |
| COc1cc(NS(C)(=O)=O)ccc1Nc1c2ccccc2nc2cc(C#N)ccc12 | 93 |
| O=C(O)c1ccc(Nc2c3ccccc3nc3c(OCC(O)CO)cccc23)cc1 (stereo not given) | 170 |
| CS(=O)(=O)Nc1ccc(Nc2c3ccccc3nc3c(C(N)=O)cccc23)cc1 | 50 |
| COc1ccc(Nc2c3ccccc3nc3ccccc23)c(NS(C)(=O)=O)c1 | 50 |
| N=C(N)NCCCCS(=O)(=O)Nc1ccc(Nc2c3ccccc3nc3ccccc23)cc1 | 25 |
| CCS(=O)(=O)Nc1ccc(Nc2c3ccccc3nc3cc(Cl)ccc23)c(OC)c1 | 95 |
| CS(=O)(=O)Nc1ccc(Nc2c3ccccc3nc3cccc([N+](=O)[O-])c23)cc1 | 25 |
| COc1ccc(Nc2c3ccccc3nc3cc([N+](=O)[O-])ccc23)cc1 | 30 |
| O=C(Nc1ccc(Nc2c3ccccc3nc3ccccc23)cc1)OCC(O)CO (stereo not given) | 70 |
| CCCCCS(=O)(=O)Nc1ccc(Nc2c3ccccc3nc3cc([N+](=O)[O-])ccc23)c(OC)c1 | 72 |
| NC(=O)N/N=C/c1ccc(Nc2c3ccccc3nc3ccccc23)cc1 | 72 |
| Cc1ccc2nc3ccccc3c(Nc3ccc(NS(C)(=O)=O)cc3)c2c1 | 25 |
| Nc1ccc(Nc2c3ccccc3nc3ccccc23)cc1 | 25 |
| Cc1c([N+](=O)[O-])ccc2c(Nc3ccc(NS(C)(=O)=O)cc3)c3ccccc3nc12 | 70 |
| CCCCOc1cccc2c(Nc3ccc(NS(=O)(=O)CCC)cc3OC)c3ccccc3nc12 | 80 |
| CCC(=O)N(c1ccc(Nc2c3ccc([N+](=O)[O-])cc3nc3c(C)cccc23)c(OC)c1)S(C)(=O)=O | 72 |
| COc1cccc(Nc2c3ccccc3nc3ccccc23)c1 | 25 |
| Cc1cccc2c(Nc3ccc(NS(C)(=O)=O)cc3)c3ccc(N)cc3nc12 | 110 |
| COc1cc(NS(C)(=O)=O)ccc1Nc1c2ccccc2nc2c(OC)cccc12 | 110 |
| CN(C)Cc1ccc(Nc2c3ccccc3nc3ccccc23)cc1 | 25 |

| SMILES | ILSmax [%] |
| --- | --- |
| CC(=O)Nc1ccc2c(=Nc3ccc(CCC(=O)O)cc3)c3ccccc3[nH]c2c1 | 25 |
| CCN(CC)/N=N/c1ccc2c(Nc3ccc(NS(C)(=O)=O)cc3)c3ccccc3nc2c1 | 95 |
| COc1cc(NS(C)(=O)=O)ccc1Nc1c2ccccc2nc2c1ccc1ncccc12 | 83 |
| CCCCCCS(=O)(=O)Nc1ccc(Nc2c3ccccc3nc3ccccc23)c(OC)c1 | 66 |
| CC(=O)Nc1ccc2c(Nc3ccc(N(C(=O)C(C)C)S(C)(=O)=O)cc3)c3ccccc3nc2c1 | 140 |
| NC(=O)CCCCCCCCc1ccc(Nc2c3ccccc3nc3ccccc23)cc1 | 26 |
| COc1cc(NS(C)(=O)=O)ccc1Nc1c2ccccc2nc2cc(N)ccc12 | 102 |
| Cc1cc(NS(C)(=O)=O)ccc1Nc1c2ccccc2nc2cc([N+](=O)[O-])ccc12 | 70 |
| COc1ccc2nc3cc([N+](=O)[O-])ccc3c(Nc3ccc(NS(C)(=O)=O)cc3)c2c1 | 55 |
| CCS(=O)(=O)Nc1ccc(Nc2c3ccccc3nc3cc(C)ccc23)cc1 | 84 |
| Cc1cc(NS(C)(=O)=O)ccc1Nc1c2ccccc2nc2c(C(N)=O)cccc12 | 68 |
| CCOC(=O)N1CCN(C(=O)Nc2ccc(Nc3c4ccccc4nc4ccccc34)cc2)CC1 | 50 |
| O=[N+]([O-])c1ccccc1Nc1c2ccccc2nc2ccccc12 | 25 |
| COc1ccc2c(Nc3ccc(NS(C)(=O)=O)cc3)c3ccccc3nc2c1 | 107 |
| CC(=O)Nc1ccc2c(Nc3ccc(NS(C)(=O)=O)cc3)c3ccc(Cl)cc3nc2c1 | 60 |
| O=C(O)c1ccc(S(=O)(=O)Nc2ccc(Nc3c4ccccc4nc4ccccc34)cc2)cc1 | 135 |
| CN(c1ccccc1Nc1c2ccccc2nc2ccccc12)S(C)(=O)=O | 25 |
| CS(=O)(=O)Nc1ccc(Nc2c3ccccc3nc3ccccc23)c(OCCO)c1 | 67 |
| COc1ccc2[nH]c3ccccc3c(=Nc3ccc(NS(C)(=O)=O)cc3OC)c2c1 | 35 |
| O=C(O)CCCCCc1ccc(Nc2c3ccccc3nc3ccccc23)cc1 | 200 |
| NCCCCCCS(=O)(=O)Nc1ccc(Nc2c3ccccc3nc3ccccc23)cc1 | 25 |
| NCCCCCCc1ccc(N=c2c3ccccc3[nH]c3ccccc23)cc1 | 25 |
| N=C(N)NCCCCS(=O)(=O)Nc1ccc(Nc2c3ccccc3nc3cc(Cl)ccc23)cc1 | 25 |
| CS(=O)(=O)Nc1ccc(Nc2c3ccccc3nc3cc([N+](=O)[O-])ccc23)cc1 | 69 |
| COc1ccc2nc3cc(Cl)ccc3c(Nc3ccc(NS(C)(=O)=O)cc3OC)c2c1 | 25 |
